The text below walks through data of patent publication US7875587B2, “Peptide analogues of GIP for treatment of diabetes, insulin resistance and obesity” (UUTECH Limited, priority 2004, dated 2011).

For one data set, the target named is T1, DPP IV (Sus scrofa, UniProt P22411).
T1 construct: purchased Sigma (Poole, Dorset, UK)
Description: Degradation of GIP and analogues by DPP IV (HPLC). Type of data set: in vitro ADME. The essentials:
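GIP or Tyr1-glucitol GIP (1 mmol/l) incubated at 37 °C with DPP IV (5 mU) in 50 mmol/l triethanolamine-HCl pH 7.8; stopped with TFA at 0, 2, 4 and 12 h. Products separated by reverse-phase HPLC (acetonitrile/TFA gradient, 206 nm), peak areas integrated, identity by ESI-MS.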

Another data set deals with normal mice. Nature of the data set: Chronic (11 days) (Pro3)GIP administration in normal mice. Type of data set: in vivo, mouse. As to the method: (§1) Effects of chronic (Pro^3)GIP administration on plasma glucose, insulin and glycated HbA1c in obese diabetic ob/ob mice and normal mice. Obese diabetic ob/ob mice and normal control mice aged 8-12 weeks were randomly divided into groups which received once daily subcutaneous injections (17:00 h) of either saline (0.9% w/v NaCl) or (Pro^3)GIP (25 nmol/kg body weight in saline). After 11 days, treatment was ceased. Food intake and body weight were recorded daily. Blood samples were collected from the cut tip of the tail of conscious mice into chilled fluoride/heparin coated glucose microcentrifuge tubes (Sarstedt, Numbrecht, Germany). Blood samples were immediately centrifuged using a Beckman microcentrifuge (Beckman Instruments, UK) for 30 seconds at 13000 g prior to glucose, insulin and HbA1c determinations.
Effects of chronic treatment with (Pro^3)GIP on glucose tolerance in ob/ob mice and normal mice. Plasma glucose and insulin concentrations were measured following intraperitoneal administration of glucose (18 mmol/kg body weight) in ob/ob and normal mice treated with either saline (0.9% w/v NaCl) or (Pro^3)GIP (25 nmol/kg body weight/day) for 11 days. […]
Determination of HbA1c, plasma glucose and insulin concentrations. HbA1c was measured in whole blood by ion-exchange high-performance liquid chromatography using the Menari HA-8140 kit (BIOMEN, Berkshire, UK). […]

In data set [1] the test system is obese diabetic ob/ob mice. Nature of the data set: Chronic (11 days, s.c.) (Pro3)GIP administration in obese diabetic ob/ob mice. Type of data set: in vivo, mouse. As to the method: as §1
Effects of chronic treatment with (Pro^3)GIP on glucose tolerance in ob/ob mice and normal mice. Plasma glucose and insulin concentrations were measured following intraperitoneal administration of glucose (18 mmol/kg body weight) in ob/ob and normal mice treated with either saline (0.9% w/v NaCl) or (Pro^3)GIP (25 nmol/kg body weight/day) for 11 days. This test was repeated 9 days after cessation of chronic (Pro^3)GIP treatment. Blood samples were collected from the cut tip of the tail of conscious mice into chilled fluoride/heparin microcentrifuge tubes (Sarstedt, Numbrecht, Germany) immediately prior to injection and at 15, 30 and 60 minutes post injection. Blood samples were immediately centrifuged using a Beckman microcentrifuge (Beckman Instruments, UK) for 30 seconds at 13000 g and stored at −20° prior to glucose and insulin determinations.
Effects of chronic treatment with (Pro^3)GIP on the glucose lowering effects of exogenous insulin in ob/ob mice. The glucose lowering effects of insulin were evaluated by measuring plasma glucose response in 11-day saline (0.9% w/v NaCl) and (Pro^3)GIP (25 nmol/kg body weight/day) treated ob/ob mice following acute intraperitoneal administration of insulin (50 U/kg bodyweight). Blood samples were collected from the cut tip of the tail of conscious mice into chilled fluoride/heparin microcentrifuge tubes (Sarstedt, Numbrecht, Germany) immediately prior to injection and at 30 and 60 minutes post injection. Blood samples were immediately centrifuged using a Beckman microcentrifuge (Beckman Instruments, UK) for 30 seconds at 13000 g and stored at −20° prior to glucose determination.
Effects of chronic treatment with (Pro^3)GIP on pancreatic insulin content and associated islet hypertrophy in ob/ob mice. Pancreatic tissue was excised from non-fasted ob/ob mice after 11 days treatment with either saline (0.9% w/v NaCl) or (Pro^3)GIP (25 nmol/kg body weight/day). Pancreatic samples were individually wrapped in aluminium foil and snap frozen in liquid nitrogen. Individual excised pancreatic samples were then either embedded, sectioned and immunohistochemically stained for insulin or permeabilised for determination of pancreatic insulin content.
Determination of HbA1c, plasma glucose and insulin concentrations. HbA1c was measured in whole blood by ion-exchange high-performance liquid chromatography using the Menari HA-8140 kit (BIOMEN, Berkshire, UK). Plasma glucose was assayed by an automated glucose oxidase procedure using a Beckman Glucose Analyzer II (Stevens, J. F., 1971, Clinica Chemica Acta 32:199-201) and plasma insulin was determined by RIA (Flatt, P. R. et al., 1981, Diabetologia 20:573-577). Incremental areas under plasma glucose and insulin curves (AUC) were calculated using a computer generated program (CAREA) employing the trapezoidal rule (Burington, R. S., 1973, Handbook of Mathematical Tables and Formulae, New York, McGraw Hill) with baseline subtraction.

A further data set deals with BRIN-BD11 cells. Description: GIP-stimulated insulin release from BRIN-BD11 cells (antagonism). The settings on record: 5.6 mM glucose, native GIP 10^-7 M. Type of data set: cell-based. As to the method:
Tissue culture. […] Cells were maintained in sterile tissue culture flasks (Corning Glass Works, Sunderland, UK) at 37° C. in an atmosphere of 5% CO2 and 95% air using an LEEC incubator (Laboratory Technical Engineering, Nottingham, UK). Acute studies of insulin release. Insulin release from BRIN-BD11 cells was determined using cell monolayers ([…]. et al., 1996, Diabetes 45:1132-1140). Cells were harvested with the aid of trypsin/EDTA (Gibco), seeded into 24-multiwell plates (Nunc, Roskilde, Denmark) at a density of 1.0×10^5 cells per well, and allowed to attach overnight at 37° C.

[2] abbreviates: isolated enzyme dpp iv, pH 7.8, % Intact peptide remaining after time (h).
Where [3] appears, read: 9 days after cessation of treatment.
The mark [4] stands for this setting: 25 nmol/kg/day s.c., 11 days, vs saline.

No end group written: not given here.

T1 sequence (P22411 whole entry): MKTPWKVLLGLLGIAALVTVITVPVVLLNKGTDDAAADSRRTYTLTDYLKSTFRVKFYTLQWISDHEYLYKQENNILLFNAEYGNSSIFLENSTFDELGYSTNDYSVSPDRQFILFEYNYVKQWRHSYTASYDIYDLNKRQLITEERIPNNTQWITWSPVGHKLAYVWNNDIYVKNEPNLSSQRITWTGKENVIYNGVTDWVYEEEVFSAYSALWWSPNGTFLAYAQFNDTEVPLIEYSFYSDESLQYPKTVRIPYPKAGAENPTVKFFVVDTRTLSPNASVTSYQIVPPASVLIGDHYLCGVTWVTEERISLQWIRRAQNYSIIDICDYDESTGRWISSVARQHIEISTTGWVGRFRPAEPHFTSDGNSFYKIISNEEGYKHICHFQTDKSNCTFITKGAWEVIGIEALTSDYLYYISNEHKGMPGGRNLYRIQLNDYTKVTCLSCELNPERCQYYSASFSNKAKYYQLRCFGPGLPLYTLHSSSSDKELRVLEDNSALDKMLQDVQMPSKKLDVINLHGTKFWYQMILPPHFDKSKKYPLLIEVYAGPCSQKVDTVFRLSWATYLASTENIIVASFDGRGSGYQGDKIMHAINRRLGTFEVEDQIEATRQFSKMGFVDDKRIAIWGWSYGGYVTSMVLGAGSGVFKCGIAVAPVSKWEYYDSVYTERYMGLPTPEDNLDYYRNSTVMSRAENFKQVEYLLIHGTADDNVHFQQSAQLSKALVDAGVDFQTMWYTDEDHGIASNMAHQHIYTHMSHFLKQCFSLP

As usually defined, the fraction remaining is the share of the starting amount still present when the sample was taken. Higher therefore signals greater stability. With `CC[C@H](C)[C@H](NC(=O)[C@H](CO)NC(=O)[C@H](Cc1ccc(O)cc1)NC(=O)[C@H](CC(=O)O)NC(=O)[C@H](CO)NC(=O)[C@@H](NC(=O)[C@H](Cc1ccccc1)NC(=O)[C@@H](NC(=O)CNC(=O)[C@H](CCC(=O)O)NC(=O)[C@H](C)NC(=O)[C@@H](N)Cc1ccc(O)cc1)[C@@H](C)O)[C@@H](C)CC)C(=O)N[C@@H](C)C(=O)N[C@@H](CCSC)C(=O)N[C@@H](CC(=O)O)C(=O)N[C@@H](CCCCN)C(=O)N[C@H](C(=O)N[C@@H](Cc1c[nH]cn1)C(=O)N[C@@H](CCC(N)=O)C(=O)N[C@@H](CCC(N)=O)C(=O)N[C@@H](CC(=O)O)C(=O)N[C@@H](Cc1ccccc1)C(=O)N[C@H](C(=O)N[C@@H](CC(N)=O)C(=O)N[C@@H](Cc1c[nH]c2ccccc12)C(=O)N[C@@H](CC(C)C)C(=O)N[C@@H](CC(C)C)C(=O)N[C@@H](C)C(=O)N[C@@H](CCC(N)=O)C(=O)N[C@@H](CCCCN)C(=O)NCC(=O)N[C@@H](CCCCN)C(=O)N[C@@H](CCCCN)C(=O)N[C@@H](CC(N)=O)C(=O)N[C@@H](CC(=O)O)C(=O)N[C@@H](Cc1c[nH]c2ccccc12)C(=O)N[C@@H](CCCCN)C(=O)N[C@@H](Cc1c[nH]cn1)C(=O)N[C@@H](CC(N)=O)C(=O)N[C@H](C(=O)N[C@H](C(=O)N[C@@H](CCC(N)=O)C(=O)O)[C@@H](C)O)[C@@H](C)CC)C(C)C)[C@@H](C)CC` [GIP 1–42, reference compound], at DPP IV (0 h), the “% Intact peptide remaining after time (h)” value was 100%. This compound also yielded a metabolised at 12 h, 1 mmol/l on DPP IV (isolated enzyme dpp iv, pH 7.8) of 60%. At DPP IV (setting [2]), the amount remaining at 2 h, 1 mmol/l amounted to 52 ± 1%; the fraction remaining at 4 h, 1 mmol/l turned out to be 23 ± 1%; the share remaining at 8 h, 1 mmol/l turned out to be 0%; the amount remaining at 24 h, 1 mmol/l worked out at 0%. Besides, the share remaining at 4 h, 1 mmol/l on DPP IV (isolated enzyme dpp iv, pH 7.8, % intact after incubation with DPP IV) came to 54%.
For the compound “YAPGTFISDYSIAMDKIHQQDFVNWLLAQKGKKNDWKHNITQ [(Pro^3)GIP]”, in the data set with normal mice (setting [3]), the “glucose tolerance in normal mice after cessation” value was “reversed 9 days after cessation of treatment”. Moreover, in the data set with normal mice (daily treatment for 11 days), the “glucose tolerance in normal mice” value is given as “marked deterioration of glucose tolerance”. Further, in data set [1] (25 nmol/kg/day s.c., 11 days), the HbA1c result is recorded as “significant decreases”, the islet hypertrophy result is listed as “partial correction” and the pancreatic insulin stores result was “significant decreases”. Moreover, in data set [1] (setting [4]), the plasma glucose concentration entry was “decreases” and the plasma insulin concentration entry was “decreases”. Further, the “persistence of beneficial effects after cessation” value in data set [1] (setting [3]) is recorded as “reversed 9 days after cessation of treatment”. Also, the food intake entry in data set [1] (11 days) was “without any change”. The “decrease in body weight” value in data set [1] (11 days, did not achieve significance) is given as roughly 7%. For the same compound, in data set [1] (after 11 days treatment), the “circulating insulin during glucose tolerance test” value is recorded as “without change”. In data set [1] (after 11 days treatment, i.p. glucose 18 mmol/kg), the glucose tolerance entry is “substantially improved”. For the same compound, the insulin sensitivity result in data set [1] (after 11 days, exogenous insulin 50 U/kg i.p.) is “significant improvement of insulin sensitivity”. Also, the “inhibition of GIP-stimulated insulin secretion” value with BRIN-BD11 cells was “inhibited in dose-dependent fashion”.
